Data from US20240091366A1, “NOVEL ACID-SENSITIVE APTAMER TRIPTOLIDE CONJUGATE AND APPLICATIONS” (priority 2022, published 2024).
“And” between values parts separate entries of the source, which are not always exact repeats. Identical values can stand only once.

Experiments:
[1] = tested on: hepatocellular carcinoma cell line HepG2; experiment: MTT assay, cell proliferation inhibition; assay type: cell-based; settings: Homo sapiens; hepatocellular carcinoma cells HepG2, MTT, 48 h
Text: (§1) Material: aptamer triptolide conjugate (AS1411-TP). Triptolide (TP) was provided by Shanghai Yaji Biotechnology Co. Ltd; aptamer (AS1411) was obtained from Chengdu Pilot Drug Development Co. Ltd; trypsin, thiazolyl blue (MTT) (Biofroxx, Germany); dimethyl sulfoxide (DMSO) (MP Biomedicals, France); fetal bovine serum (FBS) (Newzerum, New Zealand); DMEM medium, RPMI1640 medium, Petri dishes, 96-well plates (Corning, USA); colon cancer cells HCT116, breast cancer cells MDA-MB-231, non-small-cell lung cancer cells A549, pancreatic cancer cells PANC-1, and hepatocellular carcinoma cells HepG2 were purchased from the Shanghai Cell Bank of the Chinese Academy of Sciences and preserved in the laboratory.
(§2) Take the tumor cells HCT116, MDA-MB-231, A549, PANC-1 and HepG2 cell lines from the liquid nitrogen tank, place them in a 37° C. water bath, wait for the frozen cells to melt into cell suspension, centrifuge the cells at 1000 r/min for 3 min, discard the supernatant, add 1 ml of fresh complete medium containing 10% fetal bovine serum and 1% double antibody to mix the cells, then add 5 ml of medium, gently and repeatedly blowing the cells with a pipette gun to make them mix well. Then add 5 ml of medium, blow the cells gently and repeatedly with a pipette gun to mix them well, and finally transfer the cell suspension to a […] and label the cell name, cell number, date of resuscitation and the operator's name, and place it in a cell culture incubator for cultivation. (HCT116, PANC-1 and HepG2 cell lines were cultured in DMEM medium, while MDA-MB-231 cell line and A549 cell line were cultured in RPMI1640 medium).
(§3) Take HCT116, MDA-MB-231, A549, PANC-1, HepG2 cells with good growth status, remove the medium, add 1 ml of sterile PBS to wash, add 1.5 ml of trypsin to digest the cells, about 2 min later the cells become round and fall off, add 1.5 ml of medium to terminate the digestion, transfer it to centrifugal tube, centrifuge at 1000 r/min for 3 min, discard the supernatant, add 1 ml of fresh medium to resuspend, then add fresh medium for 1:3 distribution to other culture dishes, and label the date of transmission and the number of generations. Place in the cell culture incubator for cultivation.
(§4) Take HCT116, MDA-MB-231, A549, PANC-1, HepG2 cells with good growth status, by the same operation as the cell passaging experiment, after cell resuspension, cell counting with hemocyte counting plate, with 2500 cells/well, plant in 96-well plate, after 24 h of cell culture, remove the original medium, add medium containing different concentrations of drugs and continue to cultivate for 48 hours. After 24 h of cell culture, the original medium was removed and the medium containing different concentrations of drugs was added to continue the culture for 48 hours. […] The above steps were repeated three times.

[2] = tested on: lung adenocarcinoma cell line A549; experiment: MTT assay, cell proliferation inhibition; assay type: cell-based; settings: 48 h
Text: as §1, §2, §3, §4

[3] = tested on: pancreatic cancer cell line PANC-1; experiment: MTT assay, cell proliferation inhibition; assay type: cell-based; settings: 48 h
Text: as §1, §2, §3, §4

[4] = tested on: colon cancer cells HCT116; experiment: In vivo antitumor activity, colon cancer xenograft in nude mice; parameters: species or system mouse; Tumor weight: unit not given here; settings: HCT116 model, once every 2 days, 8 doses
Text: The following are the in vivo activity studies conducted in different tumor-bearing mice:
A PBS negative control group was set up.

[5] = Body weight during administration, colon cancer model; settings: mouse, in vivo
Protocol: Female nude mice were reared for 6-7 weeks under standard environment, colon cancer cells HCT116 were suspended in serum-free medium, and each mouse was inoculated with 5*10^6 tumor cells. When the tumor volume reached 50-100 mm^3, the mice were randomly divided into 4 groups, and were injected with aptamer triptolide conjugate, triptolide, and aptamer by tail vein, respectively, 12 mice in each group. A PBS negative control group was set up. […] The drugs were administered once every 2 days for 8 consecutive doses, and the experiment was ended 24 hours after the last dose. At the end of the experiment, the animals were executed by breaking the cervical vertebrae, and the tumors were stripped and weighed to calculate the tumor growth inhibition rate of the drug. The t-test was used to compare the tumor weight, tumor volume, RTV and other indexes of the animals in each group.

For CC(C)[C@]12O[C@H]1[C@@H]1O[C@]13[C@]1(O[C@H]1C[C@H]1C4=C(CC[C@@]13C)C(=O)OC4)[C@@H]2O [TP, Triptolide], the IC50 [1] was 0.0105 ± 0.00033 µM, the “cell proliferation inhibition rate” value ([2]; A549, 6.3 nM, samples 1-3, 0.0063 µM) was 16.7429 and 15.2571 and the “cell proliferation inhibition rate” value ([2]; A549, 12.5 nM, samples 1-3, 0.0125 µM) was 29.4400 and 25.9563. For the same molecule, the “cell proliferation inhibition rate” value ([2]; A549, 25.0 nM, samples 1-3, 0.025 µM) was 43.2000 and 46.9811, the “cell proliferation inhibition rate” value ([2]; A549, 50.0 nM, samples 1-3, 0.05 µM) was 66.0800 and 68.6718 and the “cell proliferation inhibition rate” value ([2]; A549, 100.0 nM, samples 1-3, 0.1 µM) was 84.2971 and 83.2186. For the same molecule, the “cell proliferation inhibition rate” value ([2]; A549, 200.0 nM, samples 1-3, 0.2 µM) was 97.0057 and 96.3263, the inhibition at 0.0063 µM ([2]; Homo sapiens, A549, 48 h, A549, 6.3 nM, samples 1-3, read-out: cell proliferation inhibition rate) was 13.7% and the inhibition at 0.0125 µM ([2]; Homo sapiens, A549, 48 h, A549, 12.5 nM, samples 1-3, read-out: cell proliferation inhibition rate) was 22.1%. The inhibition at 0.025 µM ([2]; Homo sapiens, A549, 48 h, A549, 25.0 nM, samples 1-3, read-out: cell proliferation inhibition rate) was 41.5%, the inhibition at 0.05 µM ([2]; Homo sapiens, A549, 48 h, A549, 50.0 nM, samples 1-3, read-out: cell proliferation inhibition rate) was 63% and the inhibition at 0.1 µM ([2]; Homo sapiens, A549, 48 h, A549, 100.0 nM, samples 1-3, read-out: cell proliferation inhibition rate) was 80.1%. For the same molecule, the inhibition at 0.2 µM ([2]; Homo sapiens, A549, 48 h, A549, 200.0 nM, samples 1-3, read-out: cell proliferation inhibition rate) was 99.2%, the IC50 ([2]; Homo sapiens, lung adenocarcinoma cells A549, MTT) was 0.03023 ± 0.00017 µM and the inhibition at 0.0031 µM ([3]; Homo sapiens, PANC-1, 48 h, PANC-1, 3.1 nM, samples 1-3, read-out: cell proliferation inhibition rate) was 31.2%. The inhibition at 0.0063 µM ([3]; Homo sapiens, PANC-1, 48 h, PANC-1, 6.3 nM, samples 1-3, read-out: cell proliferation inhibition rate) was 36%, the inhibition at 0.0125 µM ([3]; Homo sapiens, PANC-1, 48 h, PANC-1, 12.5 nM, samples 1-3, read-out: cell proliferation inhibition rate) was 49.2% and the inhibition at 0.025 µM ([3]; Homo sapiens, PANC-1, 48 h, PANC-1, 25.0 nM, samples 1-3, read-out: cell proliferation inhibition rate) was 59%. The inhibition at 0.05 µM ([3]; Homo sapiens, PANC-1, 48 h, PANC-1, 50.0 nM, samples 1-3, read-out: cell proliferation inhibition rate) was 64.8%, the inhibition at 0.1 µM ([3]; Homo sapiens, PANC-1, 48 h, PANC-1, 100.0 nM, samples 1-3, read-out: cell proliferation inhibition rate) was 80.3% and the inhibition at 0.2 µM ([3]; Homo sapiens, PANC-1, 48 h, PANC-1, 200.0 nM, samples 1-3, read-out: cell proliferation inhibition rate) was 93%. For the same molecule, the IC50 ([3]; Homo sapiens, pancreatic cancer cells PANC-1, MTT) was 0.0144 ± 9e-05 µM, the “cell proliferation inhibition rate” value ([3]; PANC-1, 3.1 nM, samples 1-3, 0.0031 µM) was 30.2815 and 32.0448 and the “cell proliferation inhibition rate” value ([3]; PANC-1, 6.3 nM, samples 1-3, 0.0063 µM) was 37.1753 and 34.7338. The “cell proliferation inhibition rate” value ([3]; PANC-1, 12.5 nM, samples 1-3, 0.0125 µM) was 47.8196 and 50.5663, the “cell proliferation inhibition rate” value ([3]; PANC-1, 25.0 nM, samples 1-3, 0.025 µM) was 58.7555 and 59.2302 and the “cell proliferation inhibition rate” value ([3]; PANC-1, 50.0 nM, samples 1-3, 0.05 µM) was 65.1441 and 74.5337. For the same molecule, the “cell proliferation inhibition rate” value ([3]; PANC-1, 100.0 nM, samples 1-3, 0.1 µM) was 81.0105 and 79.6202, the “cell proliferation inhibition rate” value ([3]; PANC-1, 200.0 nM, samples 1-3, 0.2 µM) was 98.8589 and 97.2313 and the RTV ([4]; 10 μM 100 μL tail vein) was 23.31 ± 0.31. The “T/C (%)” value ([4]; 10 μM 100 μL tail vein) was 65.57%, the “Tumor inhibition rate (%)” value ([4]; 10 μM 100 μL tail vein) was 25.80% and the Tumor weight ([4]; 10 μM 100 μL tail vein) was 2.31 ± 0.24. For the same molecule, the RTV ([4]; 30 μM 100 μL tail vein) was 16.68 ± 0.19, the “T/C (%)” value ([4]; 30 μM 100 μL tail vein) was 46.92% and the “Tumor inhibition rate (%)” value ([4]; 30 μM 100 μL tail vein) was 45.16%. For the same molecule, the Tumor weight ([4]; 30 μM 100 μL tail vein) was 1.76 ± 0.13, the RTV ([4]; 50 μM 100 μL tail vein) was 10.09 ± 0.28 and the “T/C (%)” value ([4]; 50 μM 100 μL tail vein) was 28.38%. The “Tumor inhibition rate (%)” value ([4]; 50 μM 100 μL tail vein) was 64.51%, the Tumor weight ([4]; 50 μM 100 μL tail vein) was 1.11 ± 0.25 and the “body weights of mice” value [5] was “basically maintained in the tolerable range of animal toxicity and side-effects”.
